What was measured:
[1] = test system: Chk1 phosphorylation in HT29 cells; assay: Western blot of Chk1 phosphorylation at serines 317 and 345; type: cell-based, human; settings: 20 μM for two h, then 22 h washout
Description: To determine whether an agent is a Chk1 activator, the phosphorylation state of Chk1 can be measured using phospho-specific antibodies to specific phosphorylation sites on Chk1. […] Liu et al., Genes Dev. 14:1448-59, 2000; Zhao et al., Mol. Cell. Biol. 21:4129-39, 2001; Lopez-Girona et al., Proc. Natl. Acad. Sci. U.S.A. 98:11289-94, 2001; Guo et al., Genes Dev. 14:2745-56, 2000; Gatei et al., J. Biol. Chem. 278:14806-11, 2003; Ng et al., J Biol. Chem. 279(10):8808-19, 2004; Wang et al., Natl Acad Sci USA. 100(26):15387-92, 2003; Stojic et al., Genes Dev. 18(11):1331-44, 2004. These serine sites are phosphorylated by upstream checkpoint kinases, Atm and Atr. Liu et al., Genes Dev. 14:1448-59, 2000; Zhao et al. Mol. Cell. Biol., 21:4129-39, 2001).
The phosphorylation of these sites in response to a candidate Chk1 activator can be monitored by Western blot or immunohistochemistry of tumor cells. […] HT29 cells are treated with 20 μM gemcitabine for two h. The gemcitabine is washed out of the cell growth media and cells are incubated for 22 additional h. Protein lysates are prepared and separated by an SDS-polyacrylamide gel electrophoresis. Proteins are transferred to PVDF membranes and probed with antisera (Cell Signalling) specific for either phosphorylated serine 317 or 345 (Cell Signalling).

[2] = test system: Chk1 serine 296 phosphorylation in HT29 cells; assay: Western blot of Chk1 phosphorylation at serine 296; type: cell-based, human
Procedure: Phosphorylation at this site is not inhibited by wortmannin, which inhibits Atm and Atr. Therefore, the phosphorylation of serine 296 is distinct from phosphorylation at serines 317 and 345. […] Therefore, this approach can be used to monitor Chk1 activity in tumors in response to Chk1 activators. Further, this approach can be used to measure inhibition of Chk1 activation by Chk1 inhibitors.
Thus, HT 29 cells are treated with 20 μM gemcitabine for two h. The gemcitabine is washed out of the cell growth media and cells are incubated for 22 additional h. Protein lysates are prepared and separated by an SDS-polyacrylamide gel electrophoresis. Proteins are transferred to polyvinylidene fluoride (PVDF) membranes and probed with antisera (Cell Signalling) specific for phosphorylated serine 296 (Cell Signalling). […] Further, HT29 cells treated with selective Chk1 inhibitors for 15 min show no serine 296 phosphorylation.

[3] = test system: colon tumor cell line xenograft tumors; assay: Animal tumor models (xenograft); type: in vivo, Balb/c (nu/nu) mice; settings: 160 mg/kg i.p., xenograft mice
Description: To test the ability of the Chk1 inhibitors of the invention to enhance the killing of tumors by DNA damaging agents in mice, xenograft tumor models using colon tumor cell lines are established. 5-fluorouracil (5-FU) or gemcitabine can be used as DNA damaging agents; HT29 and Colo205 (human colon carcinoma) and H460 and Calu-6 (nonsmall cell carcinoma) cells can be used to propagate xenograft tumors in 6-8 week old female […] Balb/c (nu/nu) mice. Mice are maintained in a laminar airflow cabinet under pathogen-free conditions and fed sterile food and water ad libitum. Cell lines are grown to subconfluence in RPMI 1640 media supplemented with 10% FBS, 100 U/mL penicillin, 100 μg/mL streptomycin, and 1.5 mM L-glutamine in a 5% CO2 humidified environment. Single cell suspensions are prepared in CMF-PBS, and cell concentration adjusted to 1×10^8 cells/mL. Mice are inoculated subcutaneously (s.c.) on the right flank or right leg with a total of 1×10^7 cells (100 μL). Mice are randomized (5-15 mice/group) into four treatment groups and used when tumors reach a volume of […] (usually 7-11 days post-inoculation). Tumors are measured with vernier calipers and tumor volumes are estimated using the empirically derived formula: tumor volume (cm^3)=tumor length (cm)×tumor width (cm)×tumor depth (cm)/3.3. […] Tumor size is monitored every other day for the duration of the experiment.

| SMILES | phosphorylation of Chk1 serines 317 and 345 [1] | phosphorylation of Chk1 serine 296 ([2]; HT29 cells, 20 μM for two h, then 22 h washout) | tumor growth [3] | inhibition of Chk1 serine 296 phosphorylation ([2]; gemcitabine-stimulated tumor cells) |
| --- | --- | --- | --- | --- |
| Nc1ccn([C@@H]2O[C@H](CO)[C@@H](O)C2(F)F)c(=O)n1 [gemcitabine, 2′,2′ difluoro-2′-deoxycytidine] | results in the phosphorylation of both serines 317 and 345 | results in the phosphorylation of serine 296 | delay in tumor growth is observed |  |
| COC[C@H]1OC(=O)c2coc3c2[C@@]1(C)C1=C(C3=O)[C@@H]2CCC(=O)[C@@]2(C)C[C@H]1OC(C)=O [wortmannin] |  |  |  | not inhibited |

Source: US7560462B2, “Compounds useful for inhibiting CHK1” (ICOS Corporation, priority 2004, dated 2009)
